“Also recorded” adds a separate entry of the source.

Test [1] relates to lysates of Mtb. Nature of the test: Hydrolysis of substrate in Mtb lysates. Format: biochemical, Mycobacterium tuberculosis.
For test [2], the target named is DopE10A (Mycobacterium tuberculosis, UniProt P9WNU9, E10A).

As to “MAQEQTKRGGGGGDDDDIAGSTAAGQERREKLTEETDDLLDEIDDV LEENAEDFVRAYVQKGG-Glu(AMC) [1a]”, in test [1], the “hydrolysis of substrate in lysate” value is given as “hydrolysis; also recorded: could not hydrolyze”. For the same sequence, the “activity of DopE10A on the substrate” value in test [2] was “no activity”.

The record behind these values is patent US9206241B2, “Modified prokaryotic ubiquitin-like protein and methods of use thereof” (priority 2012, dated 2015).
